Source: patent US20100222330A1, “New Compounds” (BIOVITRUM AB, priority 2001, published 2010)

Assays:
[1] = Plasma drug concentration at steady state in the food intake study (LC/MS); type: in vivo; set-up: unit not given here; details: ob/ob mouse, trunk blood at end of study
Description: (§1) The weight of the food pellets are measured at 5 p.m. and at 8 p.m. for two days before (baseline) and one day after the implantation of the osmotic minipumps. The weigh-in is performed with a computer assisted Mettler Toledo PR 5002 balance. Occasional spillage is corrected for. At the end of the study the animals are killed by neck dislocation and trunk blood sampled for later analysis of plasma drug concentrations.
The plasma sample proteins are precipitated with methanol, centrifuged and the supernatant is transferred to HPLC vials and injected into the liquid chromatography/mass spectrometric system. The mass spectrometer is set for electrospray positive ion mode and Multiple Reaction Monitoring (MRM with the transition m/z 316 ? 221). A linear regression analysis of the standards forced through the origin is used to calculate the concentrations of the unknown samples.

ob/ob mouse = assay: In vivo assay of reduction of food intake (15 h, osmotic minipump infusion); details: for % Inhibition of Food Intake in ob/ob mice at 50 mg/Kg/day, 15 h: continuous subcutaneous infusion
Description: Obese (ob/ob) mouse is selected as the primary animal model for screening as this mutant mouse consumes high amounts of food resulting in a high signal to noise ratio. To further substantiate and compare efficacy data, the effect of the compounds on food consumption is also studied in wild type (C57BL/6J) mice. The amount of food consumed during 15 hours of infusion of compounds is recorded.
Male mice (obese C57BL/6JBom-Lee and lean wild-type C57B1/6JBom; Bomholtsgaard, Denmark) 8-9 weeks with an average body weight of 50 g (obese) and 25 g (lean) are used in all the studies. The animals are housed singly in cages at 23±1° C., 40-60% humidity and have free access to water and standard laboratory chow. The 12/12-h light/dark cycle is set to lights off at 5 p.m. The animals are conditioned for at least one week before start of study.
The test compounds are dissolved in solvents suitable for each specific compound such as cyclodextrin, cyclodextrin/methane sulfonic acid, polyethylene glycol/methane sulfonic acid, saline. Fresh solutions are made for each study. […] The purity of the test compounds is of analytical grade.
The animals are weighed at the start of the study and randomized based on body weight. Alzet osmotic minipumps (Model 2001 D; infusion rate 8 μl/h) are used and loaded essentially as recommended by the Alzet technical information manual (Alza Scientific Products, 1997; Teeuwes and Yam, 1976). Continuous subcutaneous infusion with 24 hours duration is used. The minipumps are either filled with different concentrations of test compounds dissolved in vehicle or with only vehicle solution and maintained in vehicle pre-warmed to 37° C. (approx. 1 h). The minipumps are implanted subcutaneously in the neck/back region under short acting anesthesia (metofane/enflurane). This surgical procedure lasts approximately 5 min. It takes about 3 h to reach steady state delivery of the compound.
as §1
Food consumption for 15 hours is measured for the three consecutive days and the percentage of basal level values is derived for each animal from the day before and after treatment. The values are expressed as mean±SD and ±SEM from eight animals per dose group. Statistical evaluation is performed by Kruskal-Wallis one-way ANOVA using the percent basal values. If statistical significance is reached at the level of p<0.05, Mann-Whitney U-test for statistical comparison between control and treatment groups is performed.

Free plasma concentration of the compounds at steady state (Css, u) [1] | melting point | SMILES | % Inhibition of Food Intake in ob/ob mice at 50 mg/Kg/day, 15 h (ob/ob mouse) [%] | % Inhibition of Food Intake in ob/ob mice, 15 h (ob/ob mouse; dose of 100 mg/kg/d (footnote b)) | % Inhibition of Food Intake in ob/ob mice, 15 h (ob/ob mouse; dose of 14.8 mg/kg/d (footnote a))
0.078 | – | Cc1ccc(F)cc1S(=O)(=O)Nc1ccc(N2CCNCC2)c2ccccc12.Cl [Example 34, 5-Fluoro-2-methyl-N-(4-piperazin-1-yl-naphthalen-1-yl)-benzenesulfonamide, hydrochloride] | 51.4 | – | –
0.23 | – | Cc1ccc(S(=O)(=O)N(C)c2ccc(N3CCNCC3)c3ccccc23)cc1.Cl [Example 14, N,4-Dimethyl-N-[4-(1-piperazinyl)-1-naphthyl]benzenesulfonamide, hydrochloride] | – | 41^b % | –
0.008 | – | Cc1c(Cl)cccc1S(=O)(=O)Nc1ccc(N2CCNCC2)c2ccccc12.Cl [Example 48, 3-Chloro-2-methyl-N-(4-piperazin-1-yl-naphthalen-1-yl)-benzenesulfonamide, hydrochloride] | 23.8 | – | –
0.008 | – | Cl.O=S(=O)(Nc1ccc(N2CCNCC2)c2ccccc12)c1cccc2ccccc12 [Example 27, Naphthalene-1-sulfonic acid (4-piperazin-1-yl-naphthalen-1-yl)-amide, hydrochloride] | 68.9 | – | –
– | – | Cc1cc(Cl)cc(Cl)c1S(=O)(=O)Nc1ccc(N2CCNCC2)c2ccccc12.Cl [Example 53, 2,4-Dichloro-6-methyl-N-(4-piperazin-1-yl-naphthalen-1-yl)-benzenesulfonamide, hydrochloride] | – | – | 25.7^a %
0.33 | – | COc1ccc(S(=O)(=O)Nc2ccc(N3CCNCC3)c3ccccc23)cc1.Cl [Example 29, 4-Methoxy-N-(4-piperazin-1-yl-naphthalen-1-yl)-benzenesulfonamide, hydrochloride] | 71 | – | –
0.0076 | – | Cl.O=S(=O)(Nc1ccc(N2CCNCC2)c2ccccc12)c1cccc(C(F)(F)F)c1 [Example 24, 3-Trifluoromethyl-N-[4-(1-piperazinyl)-1-naphthyl]benzenesulfonamide, hydrochloride] | 46.2 | – | –
– | 181 °C (dec.) | Cc1ccc(S(=O)(=O)Nc2ccc(N3CCNCC3)c3ccccc23)cc1.Cl | – | – | –

SMILES | Free plasma concentration of the compounds at steady state (Css, u) [1] | melting point | % Inhibition of Food Intake in ob/ob mice at 50 mg/Kg/day, 15 h (ob/ob mouse) [%] | % Inhibition of Food Intake in ob/ob mice, 15 h (ob/ob mouse; dose of 100 mg/kg/d (footnote b)) | % Inhibition of Food Intake in ob/ob mice, 15 h (ob/ob mouse; dose of 14.8 mg/kg/d (footnote a))
Cl.O=S(=O)(Nc1ccc(N2CCNCC2)c2ccccc12)c1ccc2ccccc2c1 [Example 13, 2-N-[4-(1-piperazinyl)-1-naphthyl]naphthalenesulfonamide, hydrochloride] | 0.035 | – | 24.1 | – | –
Cl.O=S(=O)(Nc1ccc(N2CCNCC2)c2ccccc12)c1ccc(Cl)cc1 [Example 30, 4-Chloro-N-(4-piperazin-1-yl-naphthalen-1-yl)-benzenesulfonamide, hydrochloride] | 0.275 | – | 60.1 | – | –
Cl.O=S(=O)(Nc1ccc(N2CCNCC2)c2ccccc12)c1ccc(Br)cc1 [Example 19, 4-Bromo-N-(4-piperazin-1-yl-naphthalen-1-yl)-benzenesulfonamide, hydrochloride] | 0.150 | – | 69.6 | – | –
